Key:
MCF7 = test: Tested for growth inhibition activity against breast MCF-7 human cancer cell; type: functional
P388 = test: Tested for growth inhibition activity against murine P388 lymphocytic leukemia; type: functional, Mus musculus
SF-268 = test: Tested for growth inhibition activity against CNS SF-268 human cancer cell; type: functional
BXPC-3 = test: Tested for growth inhibition activity against pancreas BXPC-3 human cancer cell; type: functional
NCI-H460 = test: Tested for growth inhibition activity against lung NCI-H460 human cancer cell; type: functional
KM-20L2 = test: Tested for growth inhibition activity against colon KM20L2 human cancer cell; type: functional
DU-145 = test: Tested for growth inhibition activity against prostate DU-145 human cancer cell; type: functional

## COc1ccc2c(c1)[C@H]1[C@@H](O)[C@H](O)[C@@H](O)[C@@H](O)[C@@H]1NC2=O
MCF7
  Growth-inhibitory concentration: 4.4 µg/mL
P388
  Growth-inhibitory concentration: 4.3 µg/mL
SF-268
  Growth-inhibitory concentration: 3.3 µg/mL
BXPC-3
  Growth-inhibitory concentration: 4.9 µg/mL
NCI-H460
  Growth-inhibitory concentration: 2.8 µg/mL
KM-20L2
  Growth inhibitory concentration: 3.6 µg/mL
DU-145
  Growth-inhibitory concentration: 2.6 µg/mL

## COC(=O)N[C@H]1[C@H](OC(C)=O)[C@H](OC(C)=O)[C@@H](OC(C)=O)[C@H](OC(C)=O)[C@@H]1c1cccc(OC)c1
MCF7
  Growth-inhibitory concentration: >10 µg/mL
P388
  Growth-inhibitory concentration: 19.3 µg/mL
SF-268
  Growth-inhibitory concentration: >10 µg/mL
BXPC-3
  Growth-inhibitory concentration: >10 µg/mL
NCI-H460
  Growth-inhibitory concentration: >10 µg/mL
KM-20L2
  Growth inhibitory concentration: >10 µg/mL
DU-145
  Growth-inhibitory concentration: >10 µg/mL

## O=C1N[C@H]2[C@H](O)[C@H](O)CC[C@@H]2c2cc3c(cc21)OCO3
MCF7
  Growth-inhibitory concentration: >10 µg/mL
P388
  Growth-inhibitory concentration: 1.39 µg/mL
SF-268
  Growth-inhibitory concentration: >10 µg/mL
BXPC-3
  Growth-inhibitory concentration: >10 µg/mL
NCI-H460
  Growth-inhibitory concentration: >10 µg/mL
KM-20L2
  Growth inhibitory concentration: >10 µg/mL
DU-145
  Growth-inhibitory concentration: >10 µg/mL

## COc1ccc2c(c1)[C@@H]1[C@@H](NC2=O)[C@H](OC(C)=O)[C@H](OC(C)=O)[C@@H](OC(C)=O)[C@@H]1OC(C)=O
MCF7
  Growth-inhibitory concentration: 4.6 µg/mL
P388
  Growth-inhibitory concentration: 2.1 µg/mL
SF-268
  Growth-inhibitory concentration: >10 µg/mL
BXPC-3
  Growth-inhibitory concentration: >10 µg/mL
NCI-H460
  Growth-inhibitory concentration: >10 µg/mL
KM-20L2
  Growth inhibitory concentration: >10 µg/mL
DU-145
  Growth-inhibitory concentration: 6.7 µg/mL

## O=C1N[C@H]2[C@H](O)[C@H](O)[C@@H](O)[C@H](O)[C@@H]2c2cc3c(cc21)OCO3
P388
  Growth-inhibitory concentration: 0.44 µg/mL
NCI-H460
  Growth-inhibitory concentration: 0.29 µg/mL
KM-20L2
  Growth inhibitory concentration: 0.22 µg/mL

## CC(=O)O[C@H]1[C@@H]2NC(=O)c3cc4c(cc3[C@H]2CC[C@H]1OC(C)=O)OCO4
MCF7
  Growth-inhibitory concentration: >10 µg/mL
P388
  Growth-inhibitory concentration: 1.1 µg/mL
SF-268
  Growth-inhibitory concentration: >10 µg/mL
BXPC-3
  Growth-inhibitory concentration: >10 µg/mL
NCI-H460
  Growth-inhibitory concentration: >10 µg/mL
KM-20L2
  Growth inhibitory concentration: >10 µg/mL
DU-145
  Growth-inhibitory concentration: >10 µg/mL

## O=C1N[C@@H]2C(=C[C@H](O)[C@@H](O)[C@H]2O)c2cc3c(c(O)c21)OCO3 [NARCICLASINE]
MCF7
  Growth-inhibitory concentration: 0.019 µg/mL
P388
  Growth-inhibitory concentration: 0.0012 µg/mL
SF-268
  Growth-inhibitory concentration: 0.021 µg/mL
BXPC-3
  Growth-inhibitory concentration: 0.026 µg/mL
NCI-H460
  Growth-inhibitory concentration: 0.032 µg/mL
KM-20L2
  Growth inhibitory concentration: 0.021 µg/mL
DU-145
  Growth-inhibitory concentration: 0.011 µg/mL

## O=C1N[C@H]2[C@H](O)[C@H](O)[C@@H](O)[C@H](O)[C@@H]2c2cc3c(c(O)c21)OCO3 [PANCRATISTATIN]
MCF7
  Growth-inhibitory concentration: 0.032 µg/mL
P388
  Growth-inhibitory concentration: 0.039 µg/mL
SF-268
  Growth-inhibitory concentration: 0.017 µg/mL
BXPC-3
  Growth-inhibitory concentration: 0.028 µg/mL
NCI-H460
  Growth-inhibitory concentration: 0.048 µg/mL
KM-20L2
  Growth inhibitory concentration: 0.062 µg/mL
DU-145
  Growth-inhibitory concentration: 0.016 µg/mL

Reference: ChEMBL document CHEMBL1146765, “Synthesis and biological activity of some structural modifications of pancratistatin” (2004)
